{"source": "patent US5854036A", "about": "“Sesquiteterpenic dervatives” (Gruppo Lepetit S.p.A., priority 1994, dated 1998)", "key": {"[1]": {"biological_target": "T1, inositol monophosphatase (EC 3.1.3.25) (Bos taurus, UniProt P20456)", "T1 construct": "host or cells: animal brain or recombinant E. coli expressing animal IMPase", "T1 sequence (P20456 1-277)": "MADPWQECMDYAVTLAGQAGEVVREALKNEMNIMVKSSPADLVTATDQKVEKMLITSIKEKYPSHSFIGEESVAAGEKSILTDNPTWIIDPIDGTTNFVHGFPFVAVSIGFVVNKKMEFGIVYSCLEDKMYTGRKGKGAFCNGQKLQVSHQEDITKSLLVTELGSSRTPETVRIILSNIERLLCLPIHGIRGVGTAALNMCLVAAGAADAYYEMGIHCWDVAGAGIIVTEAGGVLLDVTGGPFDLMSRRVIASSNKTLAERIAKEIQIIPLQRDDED", "experiment": "inhibition of inositol monophosphatase (IMPase, EC 3.1.3.25); phosphate liberated from 4 mM 2-glycerolphosphate, molybdate coloration", "format": "biochemical, animal", "conditions": "for IC50: Table 1, pH 7.5, 4 mM 2-glycerolphosphate, 5 ug/ml IMPase, 30 minutes, read-out: IC50 (amount of inhibitor required to inhibit the enzyme activity by 50%) (converted)", "source_text": "For determining said activity, IMPase with a purity higher than 90% as judged by SDS-PAGE (sodium dodecyl sulphate polyacrylamide gel electrophoresis) is purified as described in P. D. Pelton and A. J.\nGanzhorn, Journal Biolog. Chem., 267, 1992, pp. 5916-5920. The enzyme can be purified from animal brain or from recombinant E. coli strains expressing animal IMPase. Although crude enzyme preparations can also be used it is preferable to use purified enzyme. The purified enzyme routinely has a specific activity of 25 μmol of Pi/min/mg of protein as determined in a standard assay (P. V. Attwood et al., Biochem. Jour., 1988, 253, pp. 387-394) with 4 mH 2-glycerolphosphate as substrate.\nThe enzyme activity may be determined according to A. J. Ganzhorn and M. C. Chanal, Biochem., 1990, 29; the reaction mixture contains 50mM Tris-HCl, pH 7.5, 2 mM magnesium chloride and 0.1 mM EGTA. Then, 5 ug/ml of IMPase and 4 mM of 2-glycerolphosphate substrate are added to the reaction mixture; alternatively, it is also possible to add the substrate directly into the reaction mixture, before adding the enzyme.\nThe reaction is considered terminated after 30 minutes from the addition of the substrate or the enzyme (depending on which one is added later); the liberated phosphate is determined by molybdate coloration (P. V. Attwood et al., Biochem. Jour., 1988, 253, pp. 387-394) at 350 nm with a Shimadzu spectrophotometer UV 2100.\nThe enzyme reaction is performed either in the absence or in the presence of various concentrations of 6'β-Stachybotrydial or MDL63394 to determine the amount of inhibitor required to inhibit the enzyme activity by 50% (IC50); the results are reported in Table 1, compared with the activity of L-671,776."}, "complement system": {"system": "complement system", "conditions": "literature statement; cited from earlier work"}, "inositol monophosphatase": {"system": "inositol monophosphatase", "conditions": "literature statement; cited from earlier work"}, "[2]": {"conditions": "cited from earlier work"}, "[3]": {"system": "manic symptoms / bipolar disorder", "conditions": "cited from earlier work"}}, "note": "“Also recorded” adds a separate entry of the source."}
{"compound": "C[C@@H]1CCC2C(C)(C)[C@@H](O)CC[C@]2(C)[C@@]12Cc1c(O)cc(C=O)c(C=O)c1O2", "note": "(stereo partly drawn) [6'β-Stachybotrydial]", "values": [{"measurement": "IC50", "setting": "[1]", "value": 64.7, "unit": "µM"}, {"measurement": "inhibitory activity against the enzyme inositol monophosphatase", "setting": "[1]; qualitative statement", "value": "show inhibitory activity"}]}
{"compound": "C[C@@H]1CCC2C(C)(C)[C@H](O)C(O)C[C@]2(C)[C@@]12Cc1c(O)cc(C=O)c(C=O)c1O2", "note": "(stereo partly shown) [K-76]", "values": [{"measurement": "inhibitor of the complement system", "setting": "complement system", "value": "inhibitor of the complement system"}]}
{"compound": "CC1CCC2C(C)(C)C(O)CCC2(C)C12Cc1c(O)cc(CO)c(C=O)c1O2", "note": "[L-671,776]", "values": [{"measurement": "IC50", "setting": "[1]", "value": 463, "unit": "µM"}, {"measurement": "IMPase-inhibiting activity", "setting": "inositol monophosphatase", "value": "shows the above IMPase-inhibiting activity"}]}
{"compound": "lithium", "values": [{"measurement": "IMPase-inhibiting activity", "setting": "inositol monophosphatase", "value": "inhibits the activity of said enzyme"}, {"measurement": "adverse effects", "setting": "[2]; lithium therapy", "value": "can cause a transient leukocytosis, can cause patients with a borderline thyroid reserve to become clinically hypothyroid, and can decompensate cardiac status due to shifts in fluids and electrolytes; also recorded: Structural lesions in kidney, such as interstitial fibrosis, tubular atrophy and glomerular sclerosis; also recorded: tremor, weight gain, diarrhea and skin rash"}, {"measurement": "occurrence of polyuria-polydipsia syndrome", "setting": "[2]; treated patients", "value": "up to 60%"}, {"measurement": "time to exert antimanic effect", "setting": "[3]; acute bipolar disorder", "value": "7 to 10", "unit": "days"}, {"measurement": "antimanic / prophylactic effect", "setting": "[3]; manic patients", "value": "highly specific in alleviating manic symptoms; also recorded: clear prophylaxis against disease recurrences and deterioration has been demonstrated"}]}
